Reference: article PMC10761937, “Functional engineering of human iPSC‐derived parasympathetic neurons enhances responsiveness to gastrointestinal hormones” (FEBS Open Bio, 2023)

Tested on: GLP1R
Test: cAMP accumulation assay, GLP1R‐HEK293T cells
Type: cell-based, human
Details: 0, 0.01, 0.1, 1, 10, 100 nM GLP1, 0.5 mM IBMX, 37 °C, 30 min, cAMP ELISA, n = 3
Method: HEK293T cells (Lenti‐X 293T Cell line; TaKaRa, Shiga, Japan) were maintained in Dulbecco's Modified Eagle Medium (DMEM; Fujifilm Wako Pure Chemical Industries, Osaka, Japan) supplemented with 10% fetal bovine serum (Biowest, Nuaillé, France), 1% non‐essential amino acids (NEAA) (Fujifilm Wako Pure Chemical Industries), and 1% penicillin–streptomycin (P/S) (Fujifilm Wako Pure Chemical Industries) and cultured in non‐coated culture plates at 37 °C and in an incubator with 5% CO2. The culture medium was replaced every 2–3 days. At 80–90% confluence, the cell colonies were digested into single cells using TrypLE Express (Thermo Fisher Scientific). The resulting cells were used for lentiviral transfection and agonist experiments.
Figure S1 presents the protocol used for this experiment. Lentiviral vectors were acquired from VectorBuilder (VectorBuilder Japan, Inc., Kanagawa, Japan). The mCherry expression vector (pLV‐Puro‐EF1A‐mCherry) was used as a control. pMD2.g plasmid (Addgene plasmid# 12259; RRID: Addgene 12259, Watertown, MA, USA) and psPAX2 plasmids (Addgene plasmid# 12260; RRID: Addgene 12260) were used as packaging plasmids. To produce lentiviruses, HEK293T cells were transduced with lentiviral vectors and packaging constructs containing 2 μg of lentivirus plasmids, 1 μg of pMD2.g, and 1 μg of psPAX2 plasmids using polyethyleneimine (PEI; Polysciences Inc., Warrington, PA, USA). […]

## GLP1: GLP1 (4280‐v; Peptide Institute, Inc.); GLP1 (7–37) in Ca2+ imaging (HAEGTFTSDVSSYLEGQAAKEFIAWLVKGRG; Glucagon-like peptide 1(7-37); UniProt P01275 98-128, looked up)
  cAMP production: increased cAMP production with increasing GLP1 concentration
